Positions count from the first letter of the chain named.
Tests used:
rat P2X2 [1] = molecular target: T1, rat P2X2 (Rattus norvegicus, UniProt P49653); assay: action potential recording from Drosophila taste neurons, tested at […]; format: cell-based
T1 construct: gene P2rx2; rat P2X2 with C-terminal mCherry fusion
T1 sequence (P49653 1-472): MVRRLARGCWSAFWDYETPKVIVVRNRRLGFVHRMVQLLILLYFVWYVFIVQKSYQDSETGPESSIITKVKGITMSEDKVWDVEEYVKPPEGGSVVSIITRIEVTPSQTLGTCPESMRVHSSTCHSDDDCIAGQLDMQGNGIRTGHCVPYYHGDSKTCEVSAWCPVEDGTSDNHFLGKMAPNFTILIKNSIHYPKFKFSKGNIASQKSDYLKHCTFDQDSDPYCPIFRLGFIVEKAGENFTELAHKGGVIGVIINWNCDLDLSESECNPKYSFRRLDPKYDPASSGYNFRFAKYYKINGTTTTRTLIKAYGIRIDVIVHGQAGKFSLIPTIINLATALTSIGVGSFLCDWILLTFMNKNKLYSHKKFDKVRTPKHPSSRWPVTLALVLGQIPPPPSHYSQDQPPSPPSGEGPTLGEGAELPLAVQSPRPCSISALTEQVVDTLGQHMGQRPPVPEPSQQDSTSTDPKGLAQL

rat P2X2 [2] = molecular target: T2, rat P2X2 (Rattus norvegicus, UniProt P49653, T184I); assay: as above; format: cell-based
T2 construct: gene P2rx2; T184I rP2X2::GFP
T2 sequence (P49653 1-472 T184I): T1 sequence (P49653 1-472) with T184I

rat P2X2 [3] = molecular target: T1, rat P2X2; assay: action potential recording from Drosophila taste neurons; confirmed by whole-cell voltage clamp in HEK […] cells at […]
rat P2X2 [4] = molecular target: T2, rat P2X2; assay: action potential recording from Drosophila taste neurons expressing the mutant
rat P2X2 [5] = molecular target: T1, rat P2X2; assay: action potential recording from Drosophila taste neurons expressing the receptor; also whole-cell voltage clamp in HEK […] cells
human P2X2 = molecular target: T3, human P2X2 (Homo sapiens, UniProt Q9UBL9); assay: action potential recording from Drosophila taste neurons, […] ATP; format: cell-based
T3 construct: gene P2RX2; human P2X2 variant A with C-terminal mCherry fusion tag
T3 sequence (Q9UBL9 1-471): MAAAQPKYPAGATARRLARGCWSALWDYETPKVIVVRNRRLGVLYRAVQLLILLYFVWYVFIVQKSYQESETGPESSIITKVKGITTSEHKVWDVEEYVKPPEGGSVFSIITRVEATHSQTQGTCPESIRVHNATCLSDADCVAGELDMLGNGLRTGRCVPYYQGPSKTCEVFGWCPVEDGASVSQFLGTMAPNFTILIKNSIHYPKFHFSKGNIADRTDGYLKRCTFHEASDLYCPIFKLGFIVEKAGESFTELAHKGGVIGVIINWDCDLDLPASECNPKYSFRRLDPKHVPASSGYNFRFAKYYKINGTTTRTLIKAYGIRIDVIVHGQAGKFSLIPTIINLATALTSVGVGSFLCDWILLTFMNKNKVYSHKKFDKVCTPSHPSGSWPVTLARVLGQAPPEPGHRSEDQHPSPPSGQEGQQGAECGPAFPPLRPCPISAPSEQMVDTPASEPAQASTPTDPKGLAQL

rat P2X2 [6] = molecular target: T1, rat P2X2; assay: action potential recording from Drosophila taste neurons, tested at […]; partial agonist; format: cell-based

## Nc1ncnc2c1ncn2[C@@H]1O[C@H](CO[P@](=O)(O)O[P@](=O)(O)O[P@@](=O)(O)S)[C@@H](O)[C@H]1O [ATPγS]
Rat P2X2 [1]
  action potential recording from Drosophila taste neurons, tested at 100 μM: ATPγS and ATPαS have previously been shown to act as agonists ... both were also effective agonists in the Drosophila system
Rat P2X2 [2]
  action potential recording from Drosophila taste neurons, tested at 100 μM: flies expressing rat P2X2^T184I and found that ATPγS, ATPαS and 2F-ATP elicited responses similar to ATP

## Nc1nc(F)nc2c1ncn2[C@@H]1O[C@H](COP(=O)(O)OP(=O)(O)OP(=O)(O)O)[C@@H](O)[C@H]1O [2F-ATP]
Rat P2X2 [3]
  EC50: 17.2 µM
Rat P2X2 [2]
  action potential recording from Drosophila taste neurons, tested at 100 μM: flies expressing rat P2X2^T184I and found that ATPγS, ATPαS and 2F-ATP elicited responses similar to ATP

## Nc1ncnc2c1ncn2[C@@H]1O[C@H](COP(=O)(O)OP(=O)(O)OP(=O)(O)O)[C@@H](O)[C@H]1O [ATP]
Rat P2X2 [4]
  EC50: 145 µM
Rat P2X2 [5]
  EC50: 8.7 µM
Human P2X2
  action potential recording from Drosophila taste neurons, 10 μM ATP: The human P2X2 ortholog was also tested in Drosophila taste neurons ... and it responded to ATP in a similar fashion

## Nc1ncnc2c1ncn2[C@@H]1O[C@H](COP(O)(=S)OP(=O)(O)OP(=O)(O)O)[C@@H](O)[C@H]1O (stereo partly drawn) [ATPαS]
Rat P2X2 [1]
  action potential recording from Drosophila taste neurons, tested at 100 μM: Several adenosine nucleotides gave responses as large as ATP, including the previously identified agonists ATPγS and ATPαS

## Nc1nc(O)nc2c1ncn2[C@@H]1O[C@H](COP(=O)(O)OP(=O)(O)OP(=O)(O)O)[C@@H](O)[C@H]1O [2OH-ATP]
Rat P2X2 [6]
  action potential recording from Drosophila taste neurons, tested at 100 μM; part: several modifications at this position show full (2F-ATP) or partial (2-hydroxy-ATP) agonist activity

— PMC7237442, “Drosophila taste neurons as an agonist-screening platform for P2X receptors” (Scientific Reports, 2020)
